Patent US20110224204A1, “DI-SUBSTITUTED PHENYL COMPOUNDS” (priority 2008, published 2011)

Biological target: Human PDE10A1 (Homo sapiens, UniProt Q9Y233)
Test: hPDE10A1 Enzyme Inhibition
Type: biochemical
Conditions: [3H]-cAMP substrate; read-out: hPDE10A1 IC50 Band
Procedure: hPDE10A1 Enzyme Activity: 50 μl samples of serially diluted Human PDE10A1 enzyme were incubated with 50 μl of [^3H]-cAMP for 20 minutes (at 37° C.). Reactions were carried out in Greiner 96 deep well 1 ml master-block. The enzyme was diluted in 20 mM Tris HCl pH7.4 and [^3H]-cAMP was diluted in 10 mM MgCl2, 40 mM Tris.HCl pH 7.4. The reaction was terminated by denaturing the PDE enzyme (at 70° C.) after which [^3H]-5′-AMP was converted to [^3H]-adenosine by adding 25 μl snake venom nucleotidase and incubating for 10 minutes (at 37° C.). Adenosine, being neutral, was separated from charged cAMP or AMP by the addition of 200 μl Dowex resin. Samples were shaken for 20 minutes then centrifuged for 3 minutes at 2,500 r.p.m. 50 μl of supernatant was removed and added to 200 μl of MicroScint-20 in white plates (Greiner 96-well Optiplate) and shaken for 30 minutes before reading on Perkin Elmer TopCount Scintillation Counter.
hPDE10A1 Enzyme Inhibition: To check inhibition profile 11 μl of serially diluted inhibitor was added to 50 μl of [^3H]-cAMP and 50 ul of diluted Human PDE10A1 and assay was carried out as in the enzyme activity assay. Data was analysed using Prism software (GraphPad Inc).

Chain of Human PDE10A1 (Q9Y233 1-779 isoform Q9Y233-1): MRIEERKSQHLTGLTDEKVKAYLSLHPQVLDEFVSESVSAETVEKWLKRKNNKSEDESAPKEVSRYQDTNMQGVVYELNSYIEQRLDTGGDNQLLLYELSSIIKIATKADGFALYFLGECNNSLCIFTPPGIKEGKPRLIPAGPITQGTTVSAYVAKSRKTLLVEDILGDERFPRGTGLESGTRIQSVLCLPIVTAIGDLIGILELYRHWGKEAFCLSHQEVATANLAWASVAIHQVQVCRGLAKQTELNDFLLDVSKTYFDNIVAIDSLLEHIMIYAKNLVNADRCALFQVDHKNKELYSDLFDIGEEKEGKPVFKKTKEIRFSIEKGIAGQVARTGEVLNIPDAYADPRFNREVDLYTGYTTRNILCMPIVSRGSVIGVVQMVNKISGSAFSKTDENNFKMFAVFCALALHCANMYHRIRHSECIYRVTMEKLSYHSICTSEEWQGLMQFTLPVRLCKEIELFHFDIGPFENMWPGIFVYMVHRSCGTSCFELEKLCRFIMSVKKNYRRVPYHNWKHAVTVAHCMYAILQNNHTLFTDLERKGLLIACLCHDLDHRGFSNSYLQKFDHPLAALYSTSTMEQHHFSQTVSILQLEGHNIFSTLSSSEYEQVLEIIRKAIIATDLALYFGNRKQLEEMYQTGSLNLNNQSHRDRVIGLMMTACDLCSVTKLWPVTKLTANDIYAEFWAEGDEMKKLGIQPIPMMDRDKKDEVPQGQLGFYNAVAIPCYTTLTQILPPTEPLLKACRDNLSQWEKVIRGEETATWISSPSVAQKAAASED

IC50 [nM]	Structure (SMILES)
> 50	Cc1ccccc1-c1ccc(OCc2ccc3ccccc3n2)cc1 [Example 444, 2-((2′-methylbiphenyl-4-yloxy)methyl)quinoline]
> 50	CCCc1ccccc1-c1ccc(OCc2ccc3ccccc3n2)cc1 [Example 1866, 2-((2′-propylbiphenyl-4-yloxy)methyl)quinoline]
≤ 50	Cc1ccc(-c2ccncc2)c(-c2ccc(OCc3ccc4ccccc4n3)cc2)c1 [Example 408, 2-(5′-Methyl-2′-pyridin-4-yl-biphenyl-4-yloxymethyl)-quinoline]
> 50	COc1cc(-c2ccncc2)c(-c2ccc(OCc3ccc4ccccc4n3)cc2)cc1OC [Example 1862, 2-((4′,5′-dimethoxy-2′-(pyridin-4-yl)biphenyl-4-yloxy)methyl)quinoline]
≤ 50	Cc1cc(-c2ccccc2-c2ccc(OCc3ccc4ccccc4n3)cc2)ccn1 [Example 1859, 2-((2′-(2-methylpyridin-4-yl)biphenyl-4-yloxy)methyl)quinoline]
≤ 50	Clc1cccc(-c2ccncc2)c1-c1ccc(OCc2ccc3ccccc3n2)cc1 [Example 382, 2-((2′-Chloro-6′-(pyridin-4-yl)biphenyl-4-yloxy)methyl)quinoline]
> 50	CC(C)c1ccccc1-c1ccc(OCc2ccc3ccccc3n2)cc1 [Example 443, 2-((2′-isopropylbiphenyl-4-yloxy)methyl)quinoline]
> 50	COc1ccc(-c2ccccc2-c2ccc(OCc3ccc4ccccc4n3)cc2)cc1Cl [Example 1869]
≤ 50	Fc1ccc(-c2ccc(OCc3ccc4ccccc4n3)cc2)c(-c2ccncc2)c1 [Example 1856, 2-(4′-Fluoro-2′-pyridin-4-yl-biphenyl-4-yloxymethyl)-quinoline]
> 50	c1ccc(N2CCOCC2)c(-c2ccc(OCc3ccc4ccccc4n3)cc2)c1 [Example 445, 4-(4′-(quinolin-2-ylmethoxy)biphenyl-2-yl)morpholine]
≤ 50	Clc1ccc(-c2ccncc2)c(-c2ccc(OCc3ccc4ccccc4n3)cc2)c1 [Example 405, 2-((5′-Chloro-2′-(pyridin-4-yl)biphenyl-4-yloxy)methyl)quinoline]
≤ 50	Fc1ccc(N2CCOCC2)c(-c2ccc(OCc3ccc4ccccc4n3)cc2)c1 [Example 469, 4-(5-fluoro-4′-(quinolin-2-ylmethoxy)biphenyl-2-yl)morpholine]
≤ 50	O=[N+]([O-])c1cccc(-c2ccncc2)c1-c1ccc(OCc2ccc3ccccc3n2)cc1 [Example 384, 2-(2′-Nitro-6′-pyridin-4-yl-biphenyl-4-yloxymethyl)-quinoline]
≤ 50	COc1cc(-c2ccccc2-c2ccc(OCc3ccc4ccccc4n3)cc2)ccc1C#N [Example 205]
> 50	Fc1cccc(-c2ccc(OCc3ccc4ccccc4n3)cc2)c1-c1ccncc1 [Example 1946, 2-(3′-Fluoro-2′-pyridin-4-ylbiphenyl-4-yloxymethyl)-quinoline]
≤ 50	COc1ccc(-c2ccccc2-c2ccc(OCc3ccc4ccccc4n3)cc2)cc1F [Example 1858]
≤ 50	Cc1cccc(-c2ccncc2)c1-c1ccc(OCc2ccc3ccccc3n2)cc1 [Example 387, 2-(6′-Methyl-2′-pyridin-4-yl-biphenyl-4-yloxymethyl)-quinoline]
≤ 50	c1ccc(-c2ccc(OCc3ccc4ccccc4n3)cc2)c(-c2ccncc2)c1 [Example 380, 2-((2′-(Pyridin-4-yl)biphenyl-4-yloxy)methyl)quinoline]
≤ 50	COc1cc(-c2ccccc2-c2ccc(OCc3ccc4ccccc4n3)cc2)ccc1Cl [Example 1861]

IC50 [nM]	Structure (SMILES)
≤ 50	COc1ccc(-c2ccccc2-c2ccc(OCc3ccc4ccccc4n3)cc2)cc1C(F)(F)F [Example 1860]
> 50	CCc1ccc(COc2ccc(-c3ccccc3-c3ccncc3)cc2)nc1 [Example 1878, 5-ethyl-2-((2′-(pyridin-4-yl)biphenyl-4-yloxy)methyl)pyridine]
≤ 50	Cc1cnc(COc2ccc(-c3ccccc3-c3ccncc3)cc2)c(C)c1 [Example 1887, 3,5-dimethyl-2-((2′-(pyridin-4-yl)biphenyl-4-yloxy)methyl)pyridine]
≤ 50	Fc1ccc2nc(COc3ccc(-c4ccccc4-c4ccncc4)cc3)ccc2c1 [Example 560, 6-fluoro-2-((2′-(pyridin-4-yl)biphenyl-4-yloxy)methyl)quinoline]
> 50	COc1ccc(-c2ccccc2-c2ccc(OCc3ccc4ccccc4n3)cc2)cc1 [Example 330]
> 50	COc1ccccc1-c1ccc(OCc2ccc3ccccc3n2)cc1 [Example 1883, 2-((2′-methoxybiphenyl-4-yloxy)methyl)quinoline]
≤ 50	Cc1ccc(COc2ccc(-c3ccccc3-c3ccncc3)cc2)nc1 [Example 501, 5-methyl-2-((2′-(pyridin-4-yl)biphenyl-4-yloxy)methyl)pyridine]
≤ 50	O=Cc1cccc(-c2ccncc2)c1-c1ccc(OCc2ccc3ccccc3n2)cc1 [Example 1854, 6-(Pyridin-4-yl)-4′-(quinolin-2-ylmethoxy)biphenyl-2-carbaldehyde]
> 50	Cc1cccc(COc2ccc(-c3ccccc3-c3ccncc3)cc2)n1 [Example 1884, 2-methyl-6-((2′-(pyridin-4-yl)biphenyl-4-yloxy)methyl)pyridine]
≤ 50	c1cc(-c2ccncc2)c(-c2ccc(OCc3ccc4ccccc4n3)cc2)c(C2OCCCO2)c1 [Example 1857, 2-((2′-(1,3-Dioxan-2-yl)-6′-(pyridin-4-yl)biphenyl-4-yloxy)methyl)quinoline]
> 50	c1ccc(N2CCCC2)c(-c2ccc(OCc3ccc4ccccc4n3)cc2)c1 [Example 1868, 2-((2′-(pyrrolidin-1-yl)biphenyl-4-yloxy)methyl)quinoline]
> 50	O=C(c1cccc(-c2ccncc2)c1-c1ccc(OCc2ccc3ccccc3n2)cc1)N1CCOCC1 [Example 1864, morpholino(6-(pyridin-4-yl)-4′-(quinolin-2-ylmethoxy)biphenyl-2-yl)methanone]
≤ 50	COc1ccc(-c2ccccc2-c2ccc(OCc3ccc4ccccc4n3)cc2)cc1C#N [Example 281]
> 50	Nc1cccc(-c2ccncc2)c1-c1ccc(OCc2ccc3ccccc3n2)cc1 [Example 1881, 6-Pyridin-4-yl-4′-(quinolin-2-ylmethoxy)-biphenyl-2-ylamine]
> 50	c1ccc(C2CCCCC2)c(-c2ccc(OCc3ccc4ccccc4n3)cc2)c1 [Example 1877, 2-((2′-cyclohexylbiphenyl-4-yloxy)methyl)quinoline]
> 50	Cc1ccc(-c2ccc(OCc3ccc4ccccc4n3)cc2)c(-c2ccncc2)c1 [Example 1867, 2-(4′-Methyl-2′-pyridin-4-yl-biphenyl-4-yloxymethyl)-quinoline]
≤ 50	COc1cccc(-c2ccncc2)c1-c1ccc(OCc2ccc3ccccc3n2)cc1 [Example 385, 2-((2′-Methoxy-6′-(pyridin-4-yl)biphenyl-4-yloxy)methyl)quinoline]
> 50	Clc1cccc(-c2ccc(OCc3ccc4ccccc4n3)cc2)c1-c1ccncc1 [Example 1872, 2-((3′-Chloro-2′-(pyridin-4-yl)biphenyl-4-yloxy)methyl)quinoline]

Structure (SMILES)	IC50 [nM]
c1ccc(-c2ccccc2-c2ccc(OCc3ccc4ccccc4n3)cc2)cc1 [Example 1863]	> 50
